One data set relates to murine model of sepsis. The arrangement: method as in PMID 18937852. The note with it: within 4 h of LPS injection ref 26; cited from earlier work.
For data set [1] the following is noted: rapidly degraded in vivo by adenosine deaminase; no reference given; cited from earlier work.
A further data set concerns human monocytes. Put plainly: PMA-stimulated TNF-α production by human monocytes. The format is cell-based.
The target in a further data set is rat A2aR (rA2aR) (Rattus norvegicus, UniProt P30543). Put plainly: cAMP assay in PC-12 cells (endogenous rat A2aR). The note with it: A2bR antagonist pre-incubated 15 min. On the technique in general: Cyclic AMP is a second messenger, typically raised through Gs and lowered through Gi signalling.
rat A2aR (rA2aR), sequence (P30543 whole entry): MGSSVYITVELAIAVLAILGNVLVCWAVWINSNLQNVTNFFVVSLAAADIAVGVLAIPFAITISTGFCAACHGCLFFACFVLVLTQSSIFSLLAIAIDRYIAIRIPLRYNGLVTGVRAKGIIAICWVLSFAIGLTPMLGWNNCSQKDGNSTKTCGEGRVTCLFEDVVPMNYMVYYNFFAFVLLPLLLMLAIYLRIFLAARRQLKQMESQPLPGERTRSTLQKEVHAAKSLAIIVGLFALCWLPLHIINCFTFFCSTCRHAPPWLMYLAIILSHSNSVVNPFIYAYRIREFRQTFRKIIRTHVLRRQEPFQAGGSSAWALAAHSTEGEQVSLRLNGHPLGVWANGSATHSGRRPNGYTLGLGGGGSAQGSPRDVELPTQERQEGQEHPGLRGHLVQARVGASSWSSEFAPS

Regarding `COC(=O)N1CCC(CC#Cc2nc(N)c3ncn([C@@H]4O[C@H](C(=O)NC5CC5)[C@@H](O)[C@H]4O)c3n2)CC1` [ATL313], in the data set on murine model of sepsis, the “circulating plasma levels of TNF-α, MIP-1α, MCP-1” value is given as “decreases” and the “plasma level of IL-10” value is “increases”. In the case of `Nc1ncnc2c1ncn2[C@@H]1O[C@H](CO)[C@@H](O)[C@H]1O` [adenosine], in data set [1], the half-life in vivo entry is recorded as “less than 10 seconds”.

For the compound `CCNC(=O)[C@H]1O[C@@H](n2cnc3c(N)ncnc32)[C@H](O)[C@@H]1O` [NECA, 5′-N-Ethylcarboxamidoadenosine], the “effect on PMA-stimulated TNF-α production” value in the data set on human monocytes (human monocytes/macrophages, NECA 1 μM, PMA 5 ng/ml, 12 h) is given as “inhibited”. `Nc1nc(NCCc2ccc(O)cc2)nc2nc(-c3ccco3)nn12` [ZM 241385, 4-(2-[7-Amino-2-(2-furyl)[1,2,4]triazolo[2,3-a][1,3,5]triazin-5-ylamino]ethyl)phenol]: the “effect on AEA061-mediated inhibition of PMA-stimulated TNF-α production” value in the data set with human monocytes (human monocytes, 15 min pretreatment, AEA061 1 μM, PMA 5 ng/ml) is recorded as “blunted”. The “effect on NECA-mediated inhibition of TNF-α production” value with human monocytes (human monocytes, 15 min pretreatment, NECA 1 μM, PMA 5 ng/ml) is “reversed the NECA-mediated inhibition in a dose-dependent manner”. In the data set on human monocytes (human monocytes, ZM 241385 at 1 μM), the “PMA-stimulated TNF-α responsiveness in NECA- and AEA061-treated cells” value is recorded as “restored”. As to `CCCn1c(=O)c2[nH]c(-c3ccc(OCC(=O)Nc4ccc(C#N)cc4)cc3)nc2n(CCC)c1=O` [MRS 1754, N-(4-Cyanophenyl)-2-[4-(2,3,6,7-tetrahydro-2,6-dioxo-1,3-dipropyl-1H-purin-8-yl)phenoxy]-acetamide], the “effect on adenosine- or adenosine plus AEA061-induced cAMP production” value on rat A2aR (rA2aR) is recorded as “failed to inhibit”.

The values are drawn from article PMC4253011, “Positive allosteric modulation of the adenosine A2a receptor attenuates inflammation” (Journal of Inflammation (London, England), 2014).
